System: acetic acid-induced visceral pain
Experiment: acetic acid-induced visceral pain mouse model (writhing/stretch count)
Format: in vivo, mice (male Harlan ICR)
Details: for number of stretches (writhes) per 30 minutes: 0.75% acetic acid IP half an hour later, control mice typically stretch 65-70 times/30 minutes; for effect on inhibiting visceral pain (stretches vs. control mice), in words: doses from 0.37 mg/kg to 30.0 mg/kg SC
Protocol: The acetic acid-induced visceral pain mouse model test is, of course, well known to those skilled in the art and is described in the seminal paper by Collier et al [Collier, H. O. J., L. C. Dinneen, C. A. Johnson and C. Schneider 1968. The abdominal constriction response and its suppression by analgesic drugs in the mouse.
The drugs are identified below as Monoamine #1-6. Five groups of five mice (male Harlan ICR, weight 35-50 g) were used to test each of the drugs. Control animals were tested as part of each experiment as well. The mice in each group were weighed and identified with a tail marking and were given a single dose of one of the drugs at 1 ml/100 g SC. The first group served as controls and was given only saline; the other five groups were given a drug at five doses ranging from 0.37 mg/kg up to 30.0 mg/kg. After the drug was administered, the mice were allowed to acclimate for one-half hour and were then given an IP injection of 0.75% Glacial acetic acid at a volume of 1 ml/100 g. Once the acid was injected, the mice were put into individual clear containers for observation. The mice were then watched continuously for one-half hour and the number of “stretches” or writhes were counted. The animal was considered to be stretching when its front legs stepped forward and at least one hind leg was extended out behind them. At the end of the thirty-minute observational period the mice were sacrificed with CO2. The same procedure was followed for all of the different compounds examined.

CCNCCc1ccccc1O.Cl [Monoamine #1, 2-[2-(Ethylamino)ethyl]phenol Hydrochloride]
number of stretches (writhes) per 30 minutes (10 mg/kg SC single dose): 25.9±14.8 stretches/30 minutes | number of stretches (writhes) per 30 minutes (30 mg/kg SC single dose): 13.1±11.7 stretches/30 minutes | effect on inhibiting visceral pain (stretches vs. control mice), in words (Hydrochloride): statistical significance at all doses tested | effect on inhibiting visceral pain (stretches vs. control mice), in words (listed as #1, Hydrochloride): effective at all of the doses tested

CCN(CCCc1ccccc1O)Cc1ccccc1.CS(=O)(=O)O [Monoamine #4]
effect on inhibiting visceral pain (stretches vs. control mice), in words: not effective against visceral pain | effect on inhibiting visceral pain (stretches vs. control mice), in words (listed as #4): little/no effect

CCNCCCCc1ccccc1O [Monoamine #3]
effect on inhibiting visceral pain (stretches vs. control mice), in words: significantly fewer stretches than the control mice | effect on inhibiting visceral pain (stretches vs. control mice), in words (listed as #3): effective at all of the doses tested

CCNCCCc1ccccc1O.Cl [Monoamine #2]
number of stretches (writhes) per 30 minutes (30 mg/kg SC single dose): 47.7±22.4 stretches/30 minutes | effect on inhibiting visceral pain (stretches vs. control mice), in words: only a minimal effect on inhibiting visceral pain | effect on inhibiting visceral pain (stretches vs. control mice), in words (listed as #2): little/no effect

CCCCCCNC1CCCCC1 [Monoamine #6, N-hexylcyclohexanamine]
effect on inhibiting visceral pain (stretches vs. control mice), in words: not effective against visceral pain | effect on inhibiting visceral pain (stretches vs. control mice), in words (listed as #6): little/no effect

CCNCCCCC1CCCCC1 [Monoamine #5, N-(4-cyclohexylbutyl)-N-ethylamine]
effect on inhibiting visceral pain (stretches vs. control mice), in words: significantly fewer stretches than the control mice | effect on inhibiting visceral pain (stretches vs. control mice), in words (listed as #5): effective at all of the doses tested

Source: patent US20060160905A1, “Compositions and methods for inhibiting pain” (priority 2005, published 2006)
